Patent US11059808B2, “Substituted phenylpyrrolecarboxamides with therapeutic activity in HIV” (New York Blood Center, Inc., priority 2014, dated 2021)

Experiments:
[1] = test system: HIV-1 pseudovirus pseudotyped with HXB2 Env; assay: microbe, parasite or virus in culture; assay type: cell-based; conditions: single cycle assay, TZM-bl cells infected with HIV-1 pseudovirus pseudotyped with HXB2 Env;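 further: endpoint is IC50 for inhibition of pseudovirus infection of TZM-bl cells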
TZM-bl cells = assay: Cytotoxicity in TZM-bl cells (XTT); assay type: cell-based; conditions: for CC50: XTT, 3 days
Protocol: The cytotoxicity of test compounds in TZM-bl cells was also measured by the XTT method described previously^7. […] The soluble intracellular formazan was quantitated colorimetrically at 450 nm 4 h later. The percent of cytotoxicity and the CC50 values were calculated as above. (See Table 4)

[2] = Human immunodeficiency virus 1, HXB2, TZM-bl

Row | Structure (SMILES) | IC50 [1] | CC50 (TZM-bl cells) | IC50 [1, 2] | percentage in brackets after CC50 >51 (TZM-bl cells; printed "(30%)" without explanation, presumably toxicity at 51 μM)
1 | Cc1nc(C(NC(=O)c2ccc(-c3ccc(Cl)c(F)c3)[nH]2)C2CCCCN2)sc1CO (single isomer, unassigned) [Compound 21] | 3.2 ± 0.5 µM | 17.4 ± 1.6 µM |  | 
2 | Cc1ccc(-c2ccc(C(=O)NC(c3nc(C)c(CO)s3)C3CCCCN3)[nH]2)cc1F (single isomer, unassigned) [Compound 23] | 3.8 ± 0.3 µM | ≥ 36 µM |  | 
3 | Cc1ccc(-c2ccc(C(=O)NC(c3nc(C)c(CCO)s3)C3CCCCN3)[nH]2)cc1F (single isomer, unassigned) [Compound 25] | 6.3 ± 0.3 µM | 15.3 ± 0.2 µM |  | 
4 | Cc1nc(C(NC(=O)c2ccc(-c3ccc(Cl)c(F)c3)[nH]2)C2CCCCN2)sc1CCO (single isomer, unassigned) [Compound 27] | 8 ± 0.1 µM | 15.1 ± 0.2 µM |  | 
5 | Cc1nc(C(NC(=O)c2ccc(-c3ccc(Cl)cc3)[nH]2)C2CCCCN2)sc1CCO (single isomer, unassigned) [Compound 29] | 5.9 ± 0.2 µM | 15.4 ± 0.3 µM |  | 
6 | Cc1nc(C(NC(=O)c2ccc(-c3ccc(Cl)cc3)[nH]2)C2CCCCN2)[nH]c1CO (single isomer, unassigned) [Compound 34] | 16 ± 0.1 µM | 34 ± 0.1 µM |  | 
7 | Cc1nc(C(NC(=O)c2ccc(-c3ccc(Cl)c(F)c3)[nH]2)C2CCCCN2)[nH]c1CO (single isomer, unassigned) [Compound 36] | 16.2 ± 0.2 µM | 31.5 ± 0.2 µM |  | 
8 | Cc1ccc(-c2ccc(C(=O)NC(c3nc(C)c(CO)[nH]3)C3CCCCN3)[nH]2)cc1F (single isomer, unassigned) [Compound 38] | 17 ± 0.2 µM | 34 ± 0.2 µM |  | 
9 | Cc1nc(C(CN)NC(=O)c2ccc(-c3ccc(Cl)cc3)[nH]2)sc1CO (single isomer, unassigned) [Compound 40] |  | ~40 µM |  | 
10 | Cc1nc(C(CN)NC(=O)c2ccc(-c3ccc(Cl)c(F)c3)[nH]2)sc1CO (single isomer, unassigned) [Compound 42] |  | ≥ 33 µM |  | 
11 | Cc1ccc(-c2ccc(C(=O)NC(CN)c3nc(C)c(CO)s3)[nH]2)cc1F (single isomer, unassigned) [Compound 44] | 1.1 ± 0.1 µM | ≥ 34 µM |  | 
12 | Cc1nc(C(CNC(=N)N)NC(=O)c2ccc(-c3ccc(Cl)cc3)[nH]2)sc1CO (single isomer, unassigned) [Compound 46] | ≥ 20 µM | > 37 µM |  | 
13 | Cc1nc(C(CNC(=N)N)NC(=O)c2ccc(-c3ccc(Cl)c(F)c3)[nH]2)sc1CO (single isomer, unassigned) [Compound 47] | ≥ 20 µM | > 36 µM |  | 
14 | Cc1ccc(-c2ccc(C(=O)NC(CNC(=N)N)c3nc(C)c(CO)s3)[nH]2)cc1F (single isomer, unassigned) [Compound 50] | > 20 µM | > 37 µM |  | 
15 | Cc1nc(C(CN)NC(=O)c2ccc(-c3ccc(Cl)c(F)c3)[nH]2)sc1CO (single isomer, unassigned) [Compound 52] |  | 50.5 ± 1.3 µM |  | 
16 | CNCC(NC(=O)c1ccc(-c2ccc(C)c(F)c2)[nH]1)c1nc(C)c(CO)s1 (single isomer, unassigned) [Compound 55] |  | ~40 µM |  | 
17 | CNCC(NC(=O)c1ccc(-c2ccc(Cl)c(F)c2)[nH]1)c1nc(C)c(CO)s1 (single isomer, unassigned) [Compound 57] | ~0.6 µM | ~20 µM |  | 
18 | CNCC(NC(=O)c1ccc(-c2ccc(Cl)cc2)[nH]1)c1nc(C)c(CO)s1 (single isomer, unassigned) [Compound 59] |  | ~22 µM |  | 
19 | CC(=O)NCC(NC(=O)c1ccc(-c2ccc(Cl)c(F)c2)[nH]1)c1nc(C)c(CO)s1 (single isomer, unassigned) [Compound 60] |  | > 44 µM |  | 
20 | CC(=O)NCC(NC(=O)c1ccc(-c2ccc(Cl)c(F)c2)[nH]1)c1nc(C)c(CO)s1 (single isomer, unassigned) [Compound 61] |  | > 44 µM |  | 
21 | Cc1nc(C(CN(C)C)NC(=O)c2ccc(-c3ccc(Cl)cc3)[nH]2)sc1CO (single isomer, unassigned) [Compound 63] |  | ~30 µM |  | 
22 | Cc1ccc(-c2ccc(C(=O)NC(CN(C)C)c3nc(C)c(CO)s3)[nH]2)cc1F (single isomer, unassigned) [Compound 65] | 6.3 ± 1.8 µM | > 40 µM |  | 
23 | Cc1nc(C(CN(C)C)NC(=O)c2ccc(-c3ccc(Cl)c(F)c3)[nH]2)sc1CO (single isomer, unassigned) [Compound 68] | 7.2 ± 3 µM | ~29 µM |  | 
24 | Cc1cc(-c2ccc(Cl)cc2)[nH]c1C(=O)NC(CN)c1nc(C)c(CO)s1 (single isomer, unassigned) [Compound 69] |  | 27.2 ± 0.8 µM |  | 
25 | Cc1cc(-c2ccc(Cl)cc2)[nH]c1C(=O)NC(CN)c1nc(C)c(CO)s1 (single isomer, unassigned) [Compound 70] | 1.1 ± 0.3 µM | 26.4 ± 0.7 µM |  | 
26 | Cc1ccc(-c2ccc(C(=O)NC(CCN(C)C)c3nc(C)c(CO)s3)[nH]2)cc1F (single isomer, unassigned) [Compound 73] | 6.6 ± 0.2 µM | 37.1 ± 5.7 µM |  | 
27 | Cc1nc(C(CCN(C)C)NC(=O)c2ccc(-c3ccc(Cl)c(F)c3)[nH]2)sc1CO (single isomer, unassigned) [Compound 75] | 1.5 ± 0.3 µM | 21.3 ± 0.6 µM |  | 

Row | Structure (SMILES) | IC50 [1] | CC50 (TZM-bl cells) | IC50 [1, 2] | percentage in brackets after CC50 >51 (TZM-bl cells; printed "(30%)" without explanation, presumably toxicity at 51 μM)
28 | Cc1nc(C(CCN(C)C)NC(=O)c2ccc(-c3ccc(Cl)cc3)[nH]2)sc1CO (single isomer, unassigned) [Compound 77] | 10.4 ± 2 µM | 40.2 ± 3 µM |  | 
29 | CNCCC(NC(=O)c1ccc(-c2ccc(C)c(F)c2)[nH]1)c1nc(C)c(CO)s1 (single isomer, unassigned) [Compound 79] | 1.6 ± 0.4 µM | 38.9 ± 2.1 µM |  | 
30 | CNCCC(NC(=O)c1ccc(-c2ccc(Cl)c(F)c2)[nH]1)c1nc(C)c(CO)s1 (single isomer, unassigned) [Compound 81] | 1.5 ± 0.4 µM | 22 ± 0.6 µM |  | 
31 | CNCCC(NC(=O)c1ccc(-c2ccc(Cl)cc2)[nH]1)c1nc(C)c(CO)s1 (single isomer, unassigned) [Compound 83] | 1.7 ± 0.2 µM | 23 ± 0.6 µM |  | 
32 | Cc1ccc(-c2ccc(C(=O)NC(CCN)c3nc(C)c(CO)s3)[nH]2)cc1F (single isomer, unassigned) [Compound 85] | 4.2 ± 1.7 µM | 43.8 ± 1.6 µM |  | 
33 | Cc1nc(C(CCN)NC(=O)c2ccc(-c3ccc(Cl)c(F)c3)[nH]2)sc1CO (single isomer, unassigned) [Compound 87] | 6.6 ± 2 µM | 35 ± 3 µM |  | 
34 | Cc1nc(C(CCN)NC(=O)c2ccc(-c3ccc(Cl)cc3)[nH]2)sc1CO (single isomer, unassigned) [Compound 89] | 4 ± 0.3 µM | 41 ± 1 µM |  | 
35 | Cc1nc(C(CN)NC(=O)c2ccc(-c3ccc(Cl)cc3)n2C)sc1CO (single isomer, unassigned) [Compound 91] |  | 35.8 ± 0.3 µM | 26 ± 1.4 µM | 
36 | Cc1nc(C(CN)NC(=O)c2ccc(-c3ccc(Cl)cc3)n2C)sc1CO (single isomer, unassigned) [Compound 92] | 25.8 ± 1.1 µM | 36.7 ± 0.4 µM |  | 
37 | Cc1nc(C(CN)NC(=O)c2cnc(-c3ccc(Cl)cc3)[nH]2)sc1CO (single isomer, unassigned) [Compound 94] |  | > 51 µM |  | 
38 | Cc1nc(C(CN)NC(=O)c2ncc(-c3ccc(Cl)cc3)[nH]2)sc1CO (single isomer, unassigned) [Compound 96] | ~51 µM | > 51 µM |  | 
39 | Cc1cc(C(=O)NC(CN)c2nc(C)c(CO)s2)[nH]c1-c1ccc(Cl)cc1 (single isomer, unassigned) [Compound 98] |  | 22.2 ± 0.3 µM |  | 
40 | Cc1ccc(-c2ccc(C(=O)NC(CN)c3ncc(CO)s3)[nH]2)cc1F (single isomer, unassigned) [Compound 100] |  | 39.2 ± 0.8 µM |  | 
41 | NCC(NC(=O)c1ccc(-c2ccc(Cl)c(F)c2)[nH]1)c1ncc(CO)s1 (single isomer, unassigned) [Compound 102] | 0.77 ± 0.04 µM | 31.8 ± 0.4 µM |  | 
42 | NCC(NC(=O)c1ccc(-c2ccc(Cl)cc2)[nH]1)c1ncc(CO)s1 (single isomer, unassigned) [Compound 103] |  | 37.1 ± 0.3 µM | 0.75 ± 0.2 µM | 
43 | COc1cc(C(=O)NC(CN)c2nc(C)c(CO)s2)[nH]c1-c1ccc(Cl)cc1 (single isomer, unassigned) [Compound 106] | 12.4 ± 2.5 µM | 22.2 ± 2.5 µM |  | 
44 | Cc1nc(C(CNC(C)C)NC(=O)c2ccc(-c3ccc(Cl)cc3)[nH]2)sc1CO (single isomer, unassigned) [Compound 107] |  | 28.5 ± 3.5 µM | 4.2 ± 0.3 µM | 
45 | Cc1nc(C(CN)NC(=O)c2ccc(-c3ccc(Cl)cc3)[nH]2)sc1CN (single isomer, unassigned) [Compound 108] |  | 14.6 ± 0.2 µM | 12.1 ± 0.5 µM | 
46 | Cc1nc(C(NC(=O)c2ccc(-c3ccc(Cl)cc3)[nH]2)C(C)(C)N)sc1CO (single isomer, unassigned) [Compound 110] | 1.1 ± 0.2 µM | 20.6 ± 1.2 µM |  | 
47 | Cc1nc(C(NC(=O)c2ccc(-c3ccc(Cl)c(F)c3)[nH]2)C(C)(C)N)sc1CO (single isomer, unassigned) [Compound 112] | 0.27 ± 0.04 µM | 13.9 ± 0.7 µM |  | 
48 | Cc1ccc(-c2ccc(C(=O)NC(c3nc(C)c(CO)s3)C(C)(C)N)[nH]2)cc1F (single isomer, unassigned) [Compound 114] | 0.34 ± 0.02 µM | 17.8 ± 0.3 µM |  | 
49 | CNCC(NC(=O)c1ccc(-c2ccc(Cl)c(F)c2)[nH]1)c1ncc(CO)s1 (single isomer, unassigned) [Compound 115] |  | 17.3 ± 0.5 µM | 0.95 ± 0.03 µM | 
50 | CNCC(NC(=O)c1ccc(-c2ccc(Cl)c(F)c2)[nH]1)c1ncc(CO)s1 (single isomer, unassigned) [Compound 116] | 1.4 ± 0.05 µM | 17.4 ± 0.4 µM |  | 
51 | CNCC(NC(=O)c1ccc(-c2ccc(C)c(F)c2)[nH]1)c1ncc(CO)s1 (single isomer, unassigned) [Compound 117] |  | 27.4 ± 0.8 µM | 1 ± 0.2 µM | 
52 | Cc1nc(C(CN)NC(=O)c2ccc(-c3ccc(F)c(F)c3)[nH]2)sc1CO (single isomer, unassigned) [Compound 122] |  | > 51 µM |  | 30%
53 | CNc1cc(NC(=O)c2ccc(-c3ccc(F)c(Cl)c3)[nH]2)nc(NC(=N)N)n1 [Compound 53] |  | ≥ 36 µM |  | 
